Assay results as given in patent US20230058178A1, “METHODS AND MATERIALS FOR TREATING NERVE INJURY AND/OR PROMOTING WOUND HEALING” (The Penn State Research Foundation, priority 2020, published 2023).

Assays:
[1] = 150 μg/kg i.p., SD rat
Protocol: 4-AP stock was prepared in saline and i.p. dose of 150 μg/kg was administered in rats.
Circulating level of 4-AP in rat serum sample was evaluated using ABSciex 4000 Q Trap mass spectrometry coupled with a Waters Acquity UPLC separation (UPLC/MS/MS) system in the Mass Spectrometry Core Facility in College of Medicine of Penn State University.
4-AP-d4 was used as an internal standard. The multiple reaction monitoring mode (MRM) was used to analyze and quantify 4-AP and 4-AP-d4, with the transitions of m/z 95>78 for 4-AP and 99>82 for 4-AP-d4. 4-AP was quantified by using a standard curve which was constructed by plotting the ratio of the peak area of 4-AP to the peak area 4-AP-d4 versus 4-AP concentration (0.01 μM-20 μM). All peaks were integrated and quantified by ABSciex Multiquan 2.1 software.

[2] = cited from earlier work
[3] = tested on: sciatic nerve crush injury; test: Triceps surae muscle tension 3 days post sciatic nerve crush injury; assay type: in vivo, rat; details: 3 days post crush
Text: Sciatic nerve crush injury was done 3 mm proximal to trifurcation.
Anesthesia was maintained with 2% isoflurane.

[4] = tested on: Dorsal skin excision wounds; test: Dorsal skin excision wound closure; assay type: in vivo, mouse
Protocol: Dorsal skin excision wounds (5-mm diameter) were made on 7-8-week-old wild-type C57BL/6 mice (FIG. 15). Mice were systemically administered saline (control) or 80 μg of 4-AP daily for 14 days. All mice were subjected to functional wound healing and tissue regeneration image-based assays at days 0, 3, 7, 10, and 14. The wound size of each mouse was measured and compared to zero day wound diameter from digital images. The percentage of wound closure was calculated by using the formula:
Wound closure (%)=(area of original wound−area of actual wound)/area of original wound×100.

[5] = tested on: sciatic nerve crush injury; details: systemic administration (Tseng et al. 2016); cited from earlier work
nerve transection = test: Triceps surae muscle tension after sciatic nerve transection (laceration) injury; assay type: in vivo, rat; details: 150 μg/kg i.p.
Protocol: (§1) Sciatic nerve innervates triceps surae muscle and thus sciatic nerve conduction can be measured in terms of triceps surae muscle contraction. As shown in this experimental setup (FIG. 2) sciatic nerve was electrically stimulated proximal to crush site, and triceps surae muscle tension was measured by force transducer (FT10; Grass Instruments).
(§2) Briefly, Sprague-Dawley (SD) rats were anaesthetized with 3-4% isoflurane, the trachea was cannulated, and the lungs were mechanically ventilated (Harvard Apparatus) with oxygen balanced vaporized 2% isoflurane. The sciatic nerve and triceps surae muscles were exposed by blunt dissection and the calcaneal tendon was severed and linked with braided fishing line to a force transducer. A shielded stimulating electrode was placed under sciatic nerve and injury was performed distal to a stimulating electrode. Sciatic nerve underwent a standardized crush injury with blunt forcep (Miltex #18-1107) and jig or laceration injury with fine scissors. Sciatic nerve crush injury was done 3 mm proximal to trifurcation. The triceps surae muscles were contracted for 10 seconds at 40 Hz, 0.1 ms pulse, and a voltage two times above the motor threshold.

[6] = tested on: sciatic nerve crush injury; test: Triceps surae muscle tension immediately after sciatic nerve crush injury; assay type: in vivo, rat
Protocol: as §1, §2

Nc1ccncc1 [4-AP, 4-aminopyridine]
4-AP concentration in serum [1]: tolerable 4-AP concentration in serum | human tolerable limit of serum 4-AP [2]: 100 ng/mL | muscle tension ([3]; lower stimulation voltage, 30 minutes after 150 μg/kg i.p. or local thermogel): 250 g | AUC of muscle tension ([3]; systemic or local treatment): significantly increased | Muscle response increase over a crush ([3]; systemic or local treatment): 80% | peak muscle tension ([3]; systemic or local treatment): significantly increased | reduction in wound area as compared to control animals ([4]; by seven days, systemic delivery): at least 50% | diameter/width of the wound area ([4]; day 3, 5 mm wound at day 0, 80 μg daily systemic (saline 5 mm)): 4.0 mm | diameter/width of the wound area ([4]; day 7, 80 μg daily systemic (saline 2.7 mm)): 1.5 mm | diameter/width of the wound area ([4]; day 10, 80 μg daily systemic (saline 1.0)): 0.3 mm | wound area reduction as compared to control animals ([4]; in three days, systemic delivery): at least 10% | wound healing compared to saline treated mice ([4]; systemic administration): accelerates the wound healing process | motor functional recovery after sciatic nerve crush injury [5]: improve motor functional recovery after sciatic nerve crush injury | restoration of nerve conduction upon treatment (nerve transection): does not occur | muscle tension ([6]; 30 minutes after 4-AP 150 μg/kg i.p. or local thermogel, 2100 g before injury, none post crush): 900 g | Muscle response increase over a crush ([6]; systemic (150 μg/kg i.p.) or local treatment): 800% | AUC of muscle tension ([6]; systemic or local treatment): significantly increased | peak muscle tension ([6]; systemic or local treatment): significantly increased
